Assay results reported in patent US10324079B2, “Method for rapid testing allergy” (priority 2013, dated 2019).

Columns and labels:
Assay type in all cases: cell-based, human
[1] = test system: lymphocytes of the patient; assay: DLST (drug-induced lymphocyte stimulation test)
Experimental: (§1) The patient having the typical allergy-like symptom (skin lesion) and the atypical patient were tested by the three different methods, namely the DLST, which is widely used for clinical tests, the LMT, which is sometimes reported more accurate than the DLST, and the present method, and then the results were compared. […] The typical case was determined as negative though the patient clearly developed the skin symptom of the toxic epidermal necrolysis (TEN) according to the clinical presentation and the clinical course.

[2] = test system: leukocytes of the patient; assay: LMT (leukocyte migration test); conditions: positive with MI value > 150 and p < 0.05
Experimental: as §1

[3] = test system: Peripheral blood Mononuclear cells (PBMC) of patient #3; leukocytes of a healthy volunteer as chemotactic cells; assay: Migration of healthy-volunteer leukocytes toward reactive solution of patient #3 mononuclear cells stimulated with suspected drug (Example 3); conditions: for chemotaxis or migration ability of the chemotactic cells (FIG. 5A): images recorded for 20 minutes; for Distance (judgment of migration distance, % of control) / Velocity (judgment of migration velocity, % of control): patient #3 PBMC + serum, 72 h, suspected drugs at ½ of Cmax, PHA 1 μg/ml, relative to PHA-stimulated reactive solution
Experimental: Leukocytes including granulocytes such as neutrophils were separated from heparinized blood of a healthy volunteer who had no allergic symptom by the density gradient centrifugation (Lymphocyte (Registered Trademark)—poly: CEDARLANE Labs. Ltd., Ontario, Canada) in accordance with a conventional method, and suspended in 5 ml of a culture medium (RPMI 1640: Sigma-Aldrich, MO, USA). After culturing the cells in a CO2 incubator at 37° C. for 1 hour the cells was adjusted to the concentration of about 5×10^5 cells/ml and used as chemotactic cells.
The chemotactic cells were injected into the lower well in the holder of EZ-TAXIScan™ (GE Healthcare, Tokyo) at about 5 μl/well, and were drawn to the end of the observation terrace by suction. Subsequently, the serum was injected into the upper well at 1.5 μl/well with a microsyringe to create a concentration gradient on the observation terrace, and images of the chemotactic cells on the observation terrace were sequentially recorded. The depth of the terrace was 4 μm.
The kinetics of the chemotactic cells migrating on the observation terrace was analyzed with software for processing images, ImageJ (NIH, MD, USA). Various parameters concerned with chemotaxis or migration ability of the cell toward the serum such as velocity, distance and direction of the migration were calculated. The statistical analysis was performed using GraphPad Prism (Registered Trademark) (GraphPad Software, CA, USA).
A drug solution was prepared by dissolving a drug in a Hank's balanced salt solution (HBSS: Sigma-Aldrich) if the drug was a solid preparation such as a soluble tablet or a powder. If the drug was poorly soluble, it was dissolved in Dimethyl-sulfoxide (DMSO: Sigma-Aldrich) and the solution was diluted with HBSS so that the final concentration of DMSO was 1% or less. A solution containing the drug solution and the serum of the patient in a ratio of 1:1 was used as a solution of the antigenic drug. The concentrations of the suspected drugs were set to ½ of the Cmax in principle. The concentration of phytohemagglutinin (PHA: Wako Pure Chemical Industries, Ltd., Osaka), a control antigen for stimulating or activating the lymphocytes, was set to 1 μg/ml.
Peripheral blood Mononuclear cells (PBMC) were separated from heparinized blood of the patient by density gradient centrifugation (Lymphoprep™: Axis-Shield PoC, Oslo, Norway) in a conventional manner, washed with HBSS, and then adjusted to the concentration of about 5×10^6 cells/ml with a culture medium for reaction (RPMI 1640 containing 10% horse serum (Invitrogen, CA, USA)).
A mixture of the suspension of the mononuclear cells and the solution of the antigenic drug in a ratio of 4:1 was reacted in a CO2 incubator at 37° C. for 72 hours, and the supernatant was used as a reactive solution stimulated with the antigen. PHA (a), gasmotin (b), dogmatyl (c), pariet (d) and DMSO (e) were used as the antigen.
The cell kinetics was measured in the substantially same manner as in Example 1 excepting that the reactive solution stimulated with the antigen was injected into the upper well in place of the serum.

[4] = patient #3, vs other suspected drugs and solvent (c, d and e), p<0.05

Molecule	LMT (MI value) ([2]; Patient A)	chemotaxis or migration ability of the chemotactic cells (FIG. 5A) ([3]; patient #3)	Distance (judgment of migration distance, % of control) [3]	Velocity (judgment of migration velocity, % of control) [3]	also measured
phytohemagglutinin [PHA]	154.87	weaker than that induced with (b) but stronger than those induced with the other suspected drugs	+ (90~120)	+ (90~120)	DLST (SI value) ([1]; Patient A, class symbol): + (Positive with *SI value > 180 (DLST)); DLST (SI value) ([1]; Patient B, class symbol): + (Positive with *SI value > 180 (DLST)); LMT (MI value) ([2]; Patient B): 283.9
CCN1CCCC1CNC(=O)c1cc(S(N)(=O)=O)ccc1OC (stereo not shown) [dogmatyl, Sulpride]				+/− (80~90)	
Mosapride citrate hydrate [gasmotin]		rapid migration of the chemotactic cells in the positive direction of the density gradient	++ (>120)	++ (>120)	migration distance (FIG. 5C) [3, 4]: significantly larger; migration velocity (FIG. 5B) [3, 4]: significantly larger
CO/N=C(\C(=O)N[C@@H]1C(=O)N2C(C(=O)O)=C(C[N+]3(C)CCCC3)CS[C@H]12)c1csc(N)n1 [Maxipime]	88.21				DLST (SI value) ([1]; Patient A, positive with SI value > 180): 112
COCCCOc1ccnc(C[S+]([O-])c2nc3ccccc3[nH]2)c1C (stereo not shown) [pariet, Rabeprazole sodium]				+ (90~120)	
CCC(C)n1ncn(-c2ccc(N3CCN(c4ccc(OCC5COC(Cn6cncn6)(c6ccc(Cl)cc6Cl)O5)cc4)CC3)cc2)c1=O (stereo not shown) [Itraconazole]					DLST (SI value) ([1]; Patient B, test 1, positive with SI value > 180): 151; DLST (SI value) ([1]; Patient B, test 2, positive with SI value > 180): 90; LMT (MI value) ([2]; Patient B, test 2): 135.5
